Experimental data published in ChEMBL document CHEMBL4706479, “Novel Aryloxyethyl Derivatives of 1-(1-Benzoylpiperidin-4-yl)methanamine as the Extracellular Regulated Kinases 1/2 (ERK1/2) Phosphorylation-Preferring Serotonin 5-HT Receptor-Biased Agonists with Robust Antidepressant-like Activity” (J Med Chem, 2019).
In brackets after ≈: the same amount, converted by molar mass. Activity calls are given as the source filed them. The calls are words filed in the database; no cut-off is given here.

What was measured:
[1] = target: Acetylcholinesterase (Homo sapiens) (UniProt P22303); assay: Inhibition of AChE (unknown origin) at 10 uM relative to control
[2] = Intrinsic clearance in human liver microsomes at 0.1 uM; type: ADME, Microsome; details: read-out: CLH
[3] = target: 5-hydroxytryptamine receptor 2A (Homo sapiens) (UniProt P28223); assay: Inhibition of 5-HT2A (unknown origin) at 10 uM relative to control
Homo sapiens = organism: Homo sapiens; assay: Inhibition of NMDA glutamate receptor (unknown origin) at 10 uM relative to control
[4] = target: Sodium-dependent dopamine transporter (Homo sapiens) (UniProt Q01959); assay: Inhibition of dopamine transporter (unknown origin) at 10 uM relative to control
CYP2D6 = CYP2D6 (Homo sapiens, UniProt P10635); assay: Inhibition of human recombinant CYP2D6 at 10 uM relative to control; type: ADME
Rattus norvegicus = assay: Antidepressant-like activity in Wistar rat assessed as reduction in immobility time at […], po administered 15 mins prior to testing and measured for 5 mins test period by Porsolt-forced swim test; type: functional, organism-based; details: time 20.0 min
[5] = target: Histamine H1 receptor (Homo sapiens) (UniProt P35367); assay: Inhibition of histamine H1 receptor (unknown origin) at 10 uM relative to control
[6] = Protein binding in human plasma; type: ADME, cell-free; details: read-out: PPB (converted)
[7] = target: D(3) dopamine receptor (Homo sapiens) (UniProt P35462); assay: Inhibition of dopamine D3 receptor (unknown origin) at 1 uM relative to control
[8] = Aqueous solubility of compound in pH 7.4 PBS buffer at 200 uM; type: physicochemical
[9] = Toxicity in Wistar rat assessed as effect on flat body posture at 0.04 to […], po observed after 60 mins post treatment; type: organism-based; details: in vivo, 1 h, dose 0.04-2.5 mg/kg
[10] = target: Histamine H1 receptor (Homo sapiens) (UniProt P35367); assay: Displacement of [3H]-pyrilamine from human recombinant histamine H1 receptor stably expressed in CHO-K1 cell membranes at 1 uM measured after 60 mins by microbeta2 scintillation counting analysis relative to control; details: Cell membrane
[11] = target: Beta-1 adrenergic receptor (Homo sapiens) (UniProt P08588); assay: Inhibition of adrenergic beta1 receptor (unknown origin) at 10 uM relative to control
hERG (KCNH2) = hERG (KCNH2) (Homo sapiens, UniProt Q12809); assay: Displacement of [3H]-dofetilide from human ERG (unknown origin) at 10 uM relative to control; details: probe [3H]-dofetilide
[12] = In vivo biased agonist activity at 5-HT1A receptor in rat prefrontal cortex assessed as serum concentration causing 50% increase in ERK1/2 phosphorylation level after oral administration measured 15 mins post drug administration
[13] = target: 5-hydroxytryptamine receptor 1D (Homo sapiens) (UniProt P28221); assay: Inhibition of 5-HT1D (unknown origin) at 1 uM relative to control
D(2) dopamine receptor = D(2) dopamine receptor (Homo sapiens, UniProt P14416); assay: Inhibition of dopamine D2S receptor (unknown origin) at 1 uM relative to control
[14] = target: Cannabinoid receptor 2 (Homo sapiens) (UniProt P34972); assay: Inhibition of cannabinoid receptor 2 (unknown origin) at 10 uM relative to control
Sequence of Cannabinoid receptor 2 (Homo sapiens) (P34972 whole entry): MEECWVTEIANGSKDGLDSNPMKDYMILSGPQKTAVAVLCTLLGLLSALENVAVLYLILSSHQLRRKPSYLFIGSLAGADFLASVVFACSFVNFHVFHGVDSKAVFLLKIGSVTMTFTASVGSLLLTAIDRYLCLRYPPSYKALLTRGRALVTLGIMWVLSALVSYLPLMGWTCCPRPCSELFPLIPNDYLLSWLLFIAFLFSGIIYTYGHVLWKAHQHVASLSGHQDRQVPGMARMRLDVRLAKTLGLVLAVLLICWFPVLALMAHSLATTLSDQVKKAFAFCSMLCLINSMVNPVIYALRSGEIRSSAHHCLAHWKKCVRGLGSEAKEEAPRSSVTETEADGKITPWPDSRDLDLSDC

Sequence of Histamine H1 receptor (Homo sapiens) (P35367 whole entry): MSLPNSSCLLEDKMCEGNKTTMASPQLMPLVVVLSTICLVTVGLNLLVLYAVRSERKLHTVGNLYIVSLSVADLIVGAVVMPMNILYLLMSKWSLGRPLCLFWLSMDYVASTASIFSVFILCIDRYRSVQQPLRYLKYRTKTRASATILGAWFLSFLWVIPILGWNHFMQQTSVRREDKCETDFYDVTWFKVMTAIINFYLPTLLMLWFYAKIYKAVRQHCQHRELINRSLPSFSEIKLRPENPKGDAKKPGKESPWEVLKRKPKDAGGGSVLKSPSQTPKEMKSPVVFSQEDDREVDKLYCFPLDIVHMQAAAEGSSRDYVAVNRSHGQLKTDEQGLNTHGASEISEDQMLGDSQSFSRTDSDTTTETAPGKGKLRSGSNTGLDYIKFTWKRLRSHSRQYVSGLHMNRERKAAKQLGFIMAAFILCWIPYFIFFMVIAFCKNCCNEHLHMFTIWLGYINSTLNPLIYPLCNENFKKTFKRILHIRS
Sequence of D(2) dopamine receptor (P14416 whole entry): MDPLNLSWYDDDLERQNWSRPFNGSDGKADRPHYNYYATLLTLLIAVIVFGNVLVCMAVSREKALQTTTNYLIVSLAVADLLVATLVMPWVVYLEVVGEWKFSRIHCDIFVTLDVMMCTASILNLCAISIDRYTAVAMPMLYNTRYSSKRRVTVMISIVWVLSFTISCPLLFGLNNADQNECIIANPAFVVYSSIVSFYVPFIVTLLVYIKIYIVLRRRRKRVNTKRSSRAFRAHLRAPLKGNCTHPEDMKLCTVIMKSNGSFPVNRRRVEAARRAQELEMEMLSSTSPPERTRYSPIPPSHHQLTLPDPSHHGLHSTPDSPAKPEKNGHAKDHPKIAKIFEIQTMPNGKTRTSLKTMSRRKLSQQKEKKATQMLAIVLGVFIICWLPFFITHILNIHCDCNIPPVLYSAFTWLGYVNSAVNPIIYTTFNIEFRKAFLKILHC
Sequence of D(3) dopamine receptor (Homo sapiens) (P35462 whole entry): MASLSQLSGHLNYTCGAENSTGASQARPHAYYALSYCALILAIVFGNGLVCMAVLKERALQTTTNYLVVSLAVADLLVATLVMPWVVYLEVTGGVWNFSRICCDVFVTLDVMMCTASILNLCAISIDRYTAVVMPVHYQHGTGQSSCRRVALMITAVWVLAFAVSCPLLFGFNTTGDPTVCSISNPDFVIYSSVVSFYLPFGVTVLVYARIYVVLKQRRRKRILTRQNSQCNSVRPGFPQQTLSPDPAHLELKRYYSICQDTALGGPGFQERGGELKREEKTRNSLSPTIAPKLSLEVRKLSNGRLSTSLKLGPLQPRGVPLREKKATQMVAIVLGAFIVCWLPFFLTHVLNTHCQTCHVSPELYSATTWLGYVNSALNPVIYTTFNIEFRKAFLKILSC
Sequence of 5-hydroxytryptamine receptor 2A (Homo sapiens) (P28223 whole entry): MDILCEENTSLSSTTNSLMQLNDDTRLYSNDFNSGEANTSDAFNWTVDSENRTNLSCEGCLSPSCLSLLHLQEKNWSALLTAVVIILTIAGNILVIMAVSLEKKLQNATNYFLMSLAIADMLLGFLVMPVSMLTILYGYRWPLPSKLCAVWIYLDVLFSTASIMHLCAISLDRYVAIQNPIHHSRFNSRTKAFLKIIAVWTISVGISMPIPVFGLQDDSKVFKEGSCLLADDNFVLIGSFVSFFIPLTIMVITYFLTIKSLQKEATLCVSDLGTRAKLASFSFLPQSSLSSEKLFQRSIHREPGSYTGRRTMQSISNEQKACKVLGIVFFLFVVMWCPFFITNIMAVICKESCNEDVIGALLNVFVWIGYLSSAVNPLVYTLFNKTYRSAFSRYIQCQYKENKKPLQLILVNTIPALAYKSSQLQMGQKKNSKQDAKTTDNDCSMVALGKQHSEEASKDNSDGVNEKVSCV
Sequence of Sodium-dependent dopamine transporter (Homo sapiens) (Q01959 whole entry): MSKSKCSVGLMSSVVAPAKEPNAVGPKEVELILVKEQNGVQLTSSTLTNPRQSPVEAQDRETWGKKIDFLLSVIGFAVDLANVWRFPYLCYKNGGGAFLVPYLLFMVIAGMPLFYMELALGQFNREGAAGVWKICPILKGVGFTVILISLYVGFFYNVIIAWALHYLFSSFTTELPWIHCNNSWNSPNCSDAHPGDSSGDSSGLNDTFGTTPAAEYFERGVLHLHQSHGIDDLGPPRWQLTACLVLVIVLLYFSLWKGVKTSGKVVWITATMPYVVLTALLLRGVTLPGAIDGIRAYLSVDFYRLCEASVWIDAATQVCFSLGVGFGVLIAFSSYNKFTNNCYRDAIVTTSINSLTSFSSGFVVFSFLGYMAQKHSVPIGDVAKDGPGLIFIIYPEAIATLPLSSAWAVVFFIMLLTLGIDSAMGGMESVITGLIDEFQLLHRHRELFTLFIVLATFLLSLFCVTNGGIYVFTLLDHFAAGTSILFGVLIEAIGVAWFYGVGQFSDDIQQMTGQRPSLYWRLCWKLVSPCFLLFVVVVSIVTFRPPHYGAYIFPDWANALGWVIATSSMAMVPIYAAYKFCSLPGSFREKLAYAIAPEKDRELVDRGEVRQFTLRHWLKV
Sequence of Beta-1 adrenergic receptor (Homo sapiens) (P08588 whole entry, looked up): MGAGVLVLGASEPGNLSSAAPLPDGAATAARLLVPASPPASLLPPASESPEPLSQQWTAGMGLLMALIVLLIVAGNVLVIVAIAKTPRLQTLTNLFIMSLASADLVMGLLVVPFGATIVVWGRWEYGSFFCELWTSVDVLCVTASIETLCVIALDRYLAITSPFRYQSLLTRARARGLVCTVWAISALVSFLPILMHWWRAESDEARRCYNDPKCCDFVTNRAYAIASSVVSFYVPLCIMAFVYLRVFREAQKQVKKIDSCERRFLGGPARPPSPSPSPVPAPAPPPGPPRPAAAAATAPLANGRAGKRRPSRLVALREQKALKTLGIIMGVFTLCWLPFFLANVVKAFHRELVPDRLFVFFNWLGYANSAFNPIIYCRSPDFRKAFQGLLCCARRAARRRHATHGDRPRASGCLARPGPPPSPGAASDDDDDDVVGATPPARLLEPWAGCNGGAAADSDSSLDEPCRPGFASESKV
Sequence of 5-hydroxytryptamine receptor 1D (Homo sapiens) (P28221 whole entry): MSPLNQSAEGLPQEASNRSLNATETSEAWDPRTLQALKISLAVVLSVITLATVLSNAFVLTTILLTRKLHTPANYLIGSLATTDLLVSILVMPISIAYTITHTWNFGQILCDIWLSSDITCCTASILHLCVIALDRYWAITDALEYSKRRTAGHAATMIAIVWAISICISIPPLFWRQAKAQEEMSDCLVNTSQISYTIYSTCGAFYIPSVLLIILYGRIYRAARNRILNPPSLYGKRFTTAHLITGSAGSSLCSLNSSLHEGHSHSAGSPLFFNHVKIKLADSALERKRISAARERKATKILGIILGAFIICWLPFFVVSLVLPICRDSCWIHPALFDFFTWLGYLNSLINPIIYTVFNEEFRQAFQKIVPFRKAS
Sequence of hERG (KCNH2) (Q12809 whole entry): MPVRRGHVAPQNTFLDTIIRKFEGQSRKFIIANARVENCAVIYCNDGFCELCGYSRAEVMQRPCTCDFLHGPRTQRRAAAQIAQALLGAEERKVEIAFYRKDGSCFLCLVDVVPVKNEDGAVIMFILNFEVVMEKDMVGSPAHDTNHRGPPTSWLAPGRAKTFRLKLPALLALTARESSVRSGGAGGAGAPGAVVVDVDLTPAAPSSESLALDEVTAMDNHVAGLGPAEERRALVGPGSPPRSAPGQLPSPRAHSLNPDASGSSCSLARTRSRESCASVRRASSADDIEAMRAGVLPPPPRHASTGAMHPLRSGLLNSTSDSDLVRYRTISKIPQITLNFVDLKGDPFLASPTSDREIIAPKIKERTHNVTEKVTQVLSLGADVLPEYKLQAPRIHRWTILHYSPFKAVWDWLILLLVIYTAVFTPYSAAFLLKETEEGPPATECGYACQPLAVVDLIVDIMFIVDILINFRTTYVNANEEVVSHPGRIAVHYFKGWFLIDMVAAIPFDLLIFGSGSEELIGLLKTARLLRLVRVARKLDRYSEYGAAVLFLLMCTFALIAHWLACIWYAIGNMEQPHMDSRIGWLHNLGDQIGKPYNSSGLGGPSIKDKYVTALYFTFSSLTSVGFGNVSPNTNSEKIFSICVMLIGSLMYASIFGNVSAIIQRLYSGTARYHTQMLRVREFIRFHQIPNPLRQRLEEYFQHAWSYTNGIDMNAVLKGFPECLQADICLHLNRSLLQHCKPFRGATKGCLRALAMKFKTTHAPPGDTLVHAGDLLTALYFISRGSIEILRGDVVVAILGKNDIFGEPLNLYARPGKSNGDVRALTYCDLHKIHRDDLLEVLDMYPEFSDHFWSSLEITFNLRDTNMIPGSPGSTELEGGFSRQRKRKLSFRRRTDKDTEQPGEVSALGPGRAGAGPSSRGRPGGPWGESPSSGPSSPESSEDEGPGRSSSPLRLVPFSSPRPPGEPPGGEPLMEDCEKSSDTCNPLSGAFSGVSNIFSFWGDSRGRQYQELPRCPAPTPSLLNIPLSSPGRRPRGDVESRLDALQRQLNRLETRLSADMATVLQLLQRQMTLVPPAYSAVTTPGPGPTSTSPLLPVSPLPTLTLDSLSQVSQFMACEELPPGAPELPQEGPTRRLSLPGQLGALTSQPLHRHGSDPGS

Molecule `O=C(c1ccc(F)c(Cl)c1)N1CCC(F)(CNCCOc2ccccn2)CC1` has an inhibition [1] of -2.9%, a microsomal CLint at 0.1 µM [2] of less than 115 µL/min/mg and an inhibition [3] of 9%. For the same molecule, the inhibition (Homo sapiens) was -1.8%, the inhibition [4] was 20.4% and the inhibition at 10 µM (CYP2D6) was 15.9%. The Activity (Rattus norvegicus) was “Active”, the inhibition [5] was -0.5% and the fraction unbound [6] was 0.068. The inhibition [7] was 39.1%, the solubility at 200 µM [8] was 192 µM (≈ 78.8 µg/mL) and the Activity [9] was “Non-Toxic”. It also gave an Activity [10] of less than 50%, an inhibition [11] of 2.2% and an inhibition at 10 µM (hERG (KCNH2)) of 16.2%. It also gave an EC [12] of 17.2 ng/mL, an inhibition [13] of 25.5% and an inhibition (D(2) dopamine receptor) of 9.5%. For the same molecule, the inhibition [14] was -3.1%.
